Literature values as cited in patent publication US20240424001A1, “LOCAL […] OF GROWTH AND REPAIR PROMOTING COMPOUNDS FOR TREATING, REDUCING AND/OR PREVENTING STRESS URINARY IN[…] FECAL INCONTINENCE” (STATERA PHARMA INC., priority 2021, published 2024).

Conditions: approximate; testosterone = 100%; varies with species studied and assay methodology (ref. 14)

| SMILES | relative potency of androgens [%] |
| --- | --- |
| C[C@]12CCC(=O)C=C1CC[C@@H]1[C@@H]2CC[C@]2(C)C(=O)CC[C@@H]12 [androstenedione] | ~10 |
| C[C@]12CC[C@H](O)CC1=CC[C@@H]1[C@@H]2CC[C@]2(C)C(=O)CC[C@@H]12 [dehydroepiandrosterone] | ~5 |
| C[C@]12CC[C@H]3[C@@H](CCC4=CC(=O)CC[C@@]43C)[C@@H]1CC[C@@H]2O [testosterone] | ~100 |
